Laboratory results from article PMC4823954, “From fighting depression to conquering tumors: a novel tricyclic thiazepine compound as a tubulin polymerization inhibitor” (Cell Death & Disease, 2016).

Tests used:
H460TaxR = assay: Cell viability assay (sulforhodamine B); format: cell-based, human; conditions: for Resistance Folds: EC50 in H460TaxR cells divided by EC50 in H460 cells; for EC50: Homo sapiens, H460/TaxR
Description: (§1) All biological reagents and solvents were obtained from commercial suppliers and used as recommended. The human NSCLC cell line H460 and P-gp-overexpressing drug-resistant cell line H460TaxR were cultured in RPMI-1640 medium supplemented with 10% fetal bovine serum, 100 units/ml penicillin and […] streptomycin. The NHFB cell line NHFB was cultured in DMEM with the same supplements. All cells were maintained in a 37 °C incubator with 95% humidity and 5% CO2.
(§2) The cell viability was determined using the sulforhodamine B assay.[64] In brief, cells (4000 cells in 100 μl medium) were seeded in 96-well culture plates and incubated for 24 h. The cells were treated with the compounds or with an equal volume (0.1%) of DMSO for 72 h. The cell viability was calculated using the following formula: cell viability=Atreatment/Acontrol. The EC50 values were determined using the Sigma Plot 10.0 software package (Systat Software Inc., San Jose, CA, USA).

H460 = assay: Cell viability assay (sulforhodamine B); format: cell-based, human; conditions: Homo sapiens
Description: as §1, §2

NHFB = assay: Cell viability assay (sulforhodamine B); format: cell-based; conditions: Fibroblast; NHFB normal human fibroblasts, 72 h
Description: as §1, §2

H460 xenograft = assay: NSCLC xenograft tumor growth inhibition; format: in vivo; conditions: H460 xenografted mice; PTX 10 mg/kg i.v., four doses every other day
Description: (§3) (a) The tumor volume was measured every other day. […] (b) Blood biochemical and hematological analyses.

H460TaxR xenograft = assay: NSCLC xenograft tumor growth inhibition; format: in vivo; conditions: H460TaxR xenografted mice; PTX 10 mg/kg i.v., four doses every other day
Description: as §3

[1] = toxicity in xenografted mice; conditions: end of experiment, hematoxylin–eosin
[2] = H460TaxR(+Rev), Reversan (P-gp inhibitor)

| EC50 (H460TaxR; [2]) | EC50 (H460; NCI-H460, 72 h, H460 cells, 72 h) | Compound | Resistance Folds (H460TaxR) | EC50 (H460TaxR; 72 h, H460TaxR cells) | EC50 (H460TaxR; H460TaxR cells) | EC50 (H460; NCI-H460, H460 cells) | EC50 (NHFB) | tumor growth inhibition, TGI (H460 xenograft) | tumor growth inhibition, TGI (H460TaxR xenograft) | histopathological examination of the major organs [1] |
| --- | --- | --- | --- | --- | --- | --- | --- | --- | --- | --- |
| 170 ± 100 nM | 110 ± 70 nM | COc1cccc2c1C(=O)c1c(O)c3c(c(O)c1C2=O)C[C@@](O)(C(=O)CO)C[C@@H]3O[C@H]1C[C@H](N)[C@H](O)[C@H](C)O1 [DOX, Doxorubicin] | 18.6 | 2050 ± 690 nM | – | – | – | – | – | – |
| 9.1 ± 3.3 nM | – | CC[C@]1(O)C[C@H]2CN(CCc3c([nH]c4ccccc34)[C@@](C(=O)OC)(c3cc4c(cc3OC)N(C=O)[C@H]3[C@@](O)(C(=O)OC)[C@H](OC(C)=O)[C@]5(CC)C=CCN6CC[C@]43[C@@H]65)C2)C1 [VCR, Vincristine] | 78.4 | – | 1010 ± 101 nM | 12.9 ± 5.2 nM | – | – | – | – |

| Compound | EC50 (H460TaxR; [2]) | EC50 (H460; NCI-H460, 72 h, H460 cells, 72 h) | Resistance Folds (H460TaxR) | EC50 (H460TaxR; 72 h, H460TaxR cells) | EC50 (H460TaxR; H460TaxR cells) | EC50 (H460; NCI-H460, H460 cells) | EC50 (NHFB) | tumor growth inhibition, TGI (H460 xenograft) | tumor growth inhibition, TGI (H460TaxR xenograft) | histopathological examination of the major organs [1] |
| --- | --- | --- | --- | --- | --- | --- | --- | --- | --- | --- |
| CC(=O)O[C@H]1C(=O)[C@@]2(C)[C@H]([C@H](OC(=O)c3ccccc3)[C@]3(O)C[C@H](OC(=O)[C@H](O)[C@@H](NC(=O)c4ccccc4)c4ccccc4)C(C)=C1C3(C)C)[C@]1(OC(C)=O)CO[C@@H]1C[C@@H]2O [PTX, paclitaxel] | 4.4 ± 2.8 nM | – | 165.0 | 822 nM | 990 ± 190 nM | 6 ± 2.1 nM | 51 nM | 66.2% | 42.0% | Hepatocyte necrosis |
